Test results taken from patent US20210369677A1, “SMALL MOLECULE ACTIVATORS OF POLYCYSTIN-2 (PKD2) AND USES THEREOF” (Northwestern University, priority 2020, published 2021).

Target: T1, polycystin-2 (Homo sapiens, UniProt Q13563, C437S/C632S)
T1 construct: expressed in transfected cells
T1 sequence (Q13563 1-968 C437S/C632S): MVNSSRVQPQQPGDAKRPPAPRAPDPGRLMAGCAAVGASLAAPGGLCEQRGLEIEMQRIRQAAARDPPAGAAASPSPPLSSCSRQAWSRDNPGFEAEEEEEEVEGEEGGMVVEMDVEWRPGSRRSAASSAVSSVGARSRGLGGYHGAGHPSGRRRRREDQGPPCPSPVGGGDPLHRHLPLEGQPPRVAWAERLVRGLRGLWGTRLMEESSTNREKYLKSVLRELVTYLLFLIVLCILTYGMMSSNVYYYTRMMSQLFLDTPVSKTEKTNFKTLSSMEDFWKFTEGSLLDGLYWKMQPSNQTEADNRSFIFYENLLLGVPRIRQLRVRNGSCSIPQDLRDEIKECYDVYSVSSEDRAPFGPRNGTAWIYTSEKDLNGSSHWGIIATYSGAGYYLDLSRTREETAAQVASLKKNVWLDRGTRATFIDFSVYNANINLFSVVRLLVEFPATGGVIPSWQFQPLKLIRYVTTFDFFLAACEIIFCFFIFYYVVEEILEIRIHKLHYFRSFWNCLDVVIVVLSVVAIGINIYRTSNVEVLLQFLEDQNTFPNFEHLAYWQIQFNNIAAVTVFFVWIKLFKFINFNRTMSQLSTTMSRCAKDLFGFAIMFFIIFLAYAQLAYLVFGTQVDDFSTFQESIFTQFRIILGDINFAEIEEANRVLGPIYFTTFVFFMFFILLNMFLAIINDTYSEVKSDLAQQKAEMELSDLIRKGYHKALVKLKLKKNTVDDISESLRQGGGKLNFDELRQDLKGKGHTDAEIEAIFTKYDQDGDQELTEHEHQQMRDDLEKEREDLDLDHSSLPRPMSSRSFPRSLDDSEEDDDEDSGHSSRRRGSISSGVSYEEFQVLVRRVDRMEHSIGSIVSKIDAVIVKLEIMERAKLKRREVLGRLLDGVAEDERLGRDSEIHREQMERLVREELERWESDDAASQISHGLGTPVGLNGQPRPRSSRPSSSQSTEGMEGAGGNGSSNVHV
Type: cell-based
Settings: C437S:C632S double mutant
Excerpt: Generation of HEK PKD2^Null cells line and the stable expression PKD2 variants. To generate the HEK PKD2^Null cell lines, we used a CRISPR/Cas9 gene editing kit available from Addgene (kit 1000000055). HEK 293 cells were electro-transfected with sgRNAs (caccg[…] and aaac[…]c) with the All-in-one Cas9 plasmid. […] Cells generated from single cell clones were selected after 4 weeks of expansion in a 96-wells plate. […] To generate the WT and variant PKD2 GFP or mCherry C-terminally tagged variant cell lines, the hPKD gene was subcloned into lentiviral pLVX-mcherry-N1 (Clontech) or pLVX-GFP-N1 (Clontech) vector using the Gibson assembly method. A linker encoding for six glycine residues was added between the PKD2 gene and the C-terminal tags, and missense variants were generated using standard, site-directed mutagenesis. The third-generation lentiviral packaging plasmids used for stable expression contained: pMDLg/pRRE (Addgene), […] pRSV-Rev (Addgene), and envelope expressing plasmid pMD2.G (Addgene). LentiX-293T cells (Takara) were transfected with polyethylineimine (Polysciences) at a 4:1:1:1 ratio of the transgene and viral packaging constructs. Supernatants were collected 48 and 72 hours post transfection and filtered through a 0.45 μm syringe filter. Lentiviral supernatant was concentrated 100 times using 1 volume of PEG-it (System Biosciences) virus precipitation solution and 4 volume of lentivirus-containing supernatant. The PEG-it and supernatant mixture were kept at 4 degrees for 24 hours and centrifuged at 1500 rpm for 30 minutes. The pellet containing lentivirus was resuspended with 1/100th volume of PBS of the original supernatant volume. HEK cells were infected with the lentivirus supernatant; PKD2-GFP or PKD2-mCherry expression was selected using culture media containing puromycin (2 μg/ml) for 30 to 90 days. Cells were then fluorescence-activated cell sorted (BD FacsMelody) at 5000 to 10,000 counts per minute to enrich for the transgene expression. Stable cell lines were cultured in Dulbecco's modified essential medium (DMEM) supplemented with 10% fetal bovine serum (FBS) and 100 units/ml penicillin, 100 units/ml streptomycin and 1 μg/ml puromycin selection antibiotic.
Electrophysiology. Ciliary ion currents were recorded using borosilicate glass electrodes polished to resistances of 14-22 MΩ using the cilium patch method previously described^32. Whole cell electrodes used to measure poly cystin-2L1 currents were fire polished to 1.5-4 MΩ resistances. Unless otherwise stated, whole cilia ionic currents were recorded in symmetrical [Na^+]. The pipette standard internal solution contained (in mM): 90 NaMES, 10 NaCl, 10 HEPES, 10 Na4-BAPTA (Glycine, N, N′-[1,2-ethanediylbis(oxy-2,1-phenylene)]bis[N-(carboxymethyl)]-,tetrasodium); pH was adjusted to 7.3 using NaOH. Standard bath solution contained 140 NaCl, 10 HEPES, 1.8 CaCl2); pH 7.4. All solutions were osmotically balanced to 295 (±6) mOsm with mannitol. Extracellular solutions containing TCEP and GSH were used within six hours of formulation. Data were collected using an Axopatch 200B patch clamp amplifier, Digidata 1440A, and pClamp 10 software. Whole-cilium and excised patch currents were digitized at 25 kHz and low-pass filtered at 10 kHz. In the whole cilium configuration, the holding potential was −60 mV and then depolarized using a 400 ms voltage ramp from −100 mV to 100 mV. The whole cell recordings of polycystin-2L1 currents were either activated by the same ramp protocol or by 100 ms depolarizations to 100 mV from a −100 mV holding potential.

Row | Compound | Effect on C437S:C632S double mutant channel cilia current
1 | O=C(O)CCP(CCC(=O)O)CCC(=O)O [TCEP, tris-2-carboxyethyl phosphine] | retained its sensitivity
2 | N[C@@H](CCC(=O)N[C@@H](CS)C(=O)NCC(=O)O)C(=O)O [GSH, reduced glutathione] | retained its sensitivity
